Measurements reported in EP0540143B1, “Compounds and methods for inhibition of HIV and related viruses” (priority 1991, dated 1993).
Where “and” joins values, the source holds several entries; their conditions need not be identical. Equal values may be shown once.

Columns and labels:
[1] = test system: HIV virus; experiment: Test A (XTT), MT4 cells infected with HIV; format: cell-based; details: for % inhibition: Test A
Protocol: (§1) Tests A, B, C, and D (XTT)
(§2) MT4 cells in a medium of RPMI 1640, 5% FCS, penicillin/streptomycin are adjusted to 2x10^5 cells/ml and seeded into microplates (96 wells/plate) 100 µl cell suspension/well giving 2x10^4 cells/well. The compound to be tested is made into a 10 mg/ml mixture in DMSO and stored at -20°C. The compound in DMSO is diluted with medium containing 10% DMSO in a 10-fold dilution series to give 1 mg/ml, 10 mg/ml, and […] solutions. Further dilutions to 400, 40, 4 and 0.4 mg/ml are made in medium containing microplates. Fifty µl of the 400, 40, and 4 mg/ml are transferred to the cell-containing microplates with a multi-channel pipette (final concentration: 100, 10, and 1 mg/ml). Finally, 50 µl of virus suspension is added to each well (with a repetitive "Eppendorf" multipipett). Each plate has at least six wells with the following: [Test A: HIV virus; Test B: HIV(II) virus; Test C: SIV virus; Test D: No virus]; with no drug (virus control) and six wells without virus (medium control). The plate is put into a plastic bag and incubated for six days in CO2 atmosphere. To each well in the plate is added 50 µl of XTT ((2,3-bis[2-methoxy-4-nitro-5-sulfophenyl]-5-[(phenylamino)carbonyl]-2H-tetrazolium hydroxide), (1 mg/ml 0.01-0.02 mM N-metyl-phenazonium methosulfate). After six hours of incubation in CO2 atmosphere the plates are covered with adhesive plate sealers and gently mixed on a vortex. Optical densities are determined at a wavelength of 450 nm and a reference wavelength of 650 nm. The percent reduction of cytotoxocity caused by the virus infection is calculated as follows: (OD450 compound - OD450 inf cells)/(OD450 uninf cells - OD450 inf cells)x 100 [formula]

[2] = test system: HIV(II) virus; experiment: Test B (XTT), MT4 cells infected with HIV(II); format: cell-based; details: Human immunodeficiency virus 1, MT4, Test B
Protocol: as §1, §2

[3] = test system: SIV virus; experiment: Test C (XTT), MT4 cells infected with SIV; format: cell-based; details: Simian immunodeficiency virus, MT4, Test C
Protocol: as §1, §2

[4] = test system: MT4 cells; experiment: Test D (XTT), MT4 cells, no virus; format: cell-based; details: Homo sapiens
Protocol: as §1, §2

[5] = test system: HIV-1; experiment: Test E (HIV-1 RT), RT activity in supernatant of infected MT-4/H9 cells; format: cell-based; details: Human immunodeficiency virus 1, H9, Test E
Protocol: (§3) Tests E, F, G, H (HIV-IRT, HIV-2RT, SIVRT, no virus)
(§4) MT-4/H9-cells are adjusted to 2x10^5 cells/ml medium (RPMI 1640, 5% FCS, penicillin/streptomycin) and seeded into microplates (96 wells/plate) […] cell suspension/well giving 2 x 10^4 cells/well. The compound to be tested is made 10 mg/ml in DMSO = stock solution (stored at -20°C). The compound dissolved in DMSO is diluted 25 times in medium to give 400 mg/ml. Further dilutions to 40 mg/ml and 4 mg/ml are made in microplates.
(§5) 50 µl of the dilutions 400 mg/ml, 40 mg/ml and 4mg/ml are transferred to the "cell-containing" microplate with a multichannel pipette. […]
(§6) Finally 50 µl of virus suspension is added to each well (with a repetitive "Eppendorf multipett"). [Test E-HIV-1; Test F-HIV-2; Test G-SIV; Test H-no virus].
(§7) Each plate has at least four wells with virus but no drug (virus control) and two wells without virus (medium control). The plate is put into a plastic bag to avoid evaporation and incubated for six days in CO2-atmosphere. 10 µl supernatant from each well is transferred with a multichannel pipette into a new microplate to which 40 ml VDB, (50 mM Tris-HCl pH = 7.6, 35 mM KCl, 4 mM DTT, 1 mM EDTA, 1.3% Triton X-100), have been added to each well. The addition of 50 ml RT-reaction mix, (10 ml culture supernatant, 40 ml VDB and 50 ml reaction mixture giving a final concentration of: 100 mM Tris-HCl pH = 7.6, 100 mM KCl, 4 mM MgCl2, 4 mM DTT, 275 mg/ml BSA/ml, 5 mg (rA)n(dT)12-18/ml and 0.3 mM ^3H dTTP (specific activity 18.000 cpm/pmol)) gives a final volume of […]/well. After 60 minutes of incubation the whole assay volume is transferred by use of a cell harvester to a filter mat prewetted with 5% TCA. The filter is washed in 5% TCA and rinsed once in ethanol. After drying the filter mat at 60°C for 30 min. each filter (96/mat) is punched out and put into counting vials 2 ml of scintillation fluid is added and the samples are counted (1 min) or the whole filter mat is put into a plastic bag, 10 ml of scintillation fluid is added and the filter mat is counted in a Beckman Betaplate counter. Percent reduction of RT activity is determined by comparing RT activity for virus control with the RT activity measured for each dilution of the compound.

[6] = test system: HIV-2; experiment: Test F (HIV-2 RT), RT activity in supernatant of infected MT-4/H9 cells; format: cell-based; details: Human immunodeficiency virus 2, H9, Test F
Protocol: as §3, §4, §5, §6, §7

[7] = biological target: recombinant HIV-RT (Human immunodeficiency virus type 1 group M subtype B, UniProt P04585); experiment: Test I (HIVRT (rAdt)), direct inhibition of recombinant HIV-RT; format: biochemical
Protocol: The compounds were tested for direct inhibitory activity on HIV-RT in a volume of […] recombinant HIV-RT (diluted in virus disruption buffer to give 200.000 cpm).
100 mM Tris-HCl pH 7.6, 100 mM KCl, 4 mM MgCl2, 4 mM DTT, 275 mg/ml BSA, 0.5 mg (rA)n(dT)12-18 and 0.3 mM ^3H- dTTP (specific activity […]). After 60 minutess of incubation 40 ml in duplicate were spotted on paper discs and washed in 5% TCA. After rinsing the paper discs in ethanol they were dried and counted in scintillation fluid.

[8] = Human immunodeficiency virus 1, MT4, Test A, 10 µg/ml

SMILES | inhibition at 0.1 µg/mL [2] | inhibition at 1 µg/mL [2] | inhibition at 10 µg/mL [2] | inhibition at 100 µg/mL [2] | inhibition at 1 µg/mL [3] | inhibition at 10 µg/mL [3] | inhibition at 100 µg/mL [3] | inhibition at 10 µg/mL [4] | inhibition at 100 µg/mL [4] | inhibition at 0.1 µg/mL [5] | inhibition at 1 µg/mL [5] | inhibition at 10 µg/mL [5] | inhibition at 100 µg/mL [5] | inhibition at 0.1 µg/mL [6] | inhibition at 1 µg/mL [6] | inhibition at 10 µg/mL [6] | inhibition at 100 µg/mL [6] | inhibition at 0.1 µg/mL ([7]; 0.1 µg/ml) | inhibition at 1 µg/mL ([7]; 1 µg/ml) | inhibition at 10 µg/mL ([7]; 10 µg/ml) | also measured
Cc1nc(NC(=S)NCCc2ccccc2)sc1C | 13% | 100% | 100% | 85% | 0% | 1% | 0% | 0% | 0% | 1% | 23% | 91% | 94% | 1% | 92% | 61% | 93% | 34% | 39% | 38% | inhibition at 0.1 µg/mL ([1]; Human immunodeficiency virus 1, MT4, Test A, 0.1 µg/ml): 7%; inhibition at 10 µg/mL [1, 8]: 85%; inhibition at 100 µg/mL ([1]; Human immunodeficiency virus 1, MT4, Test A, 100 µg/ml): 99%; % inhibition ([1]; 10 µg/ml): 88%; % inhibition ([1]; 100 µg/ml): 100%
Fc1ccc2nc(NC(=S)NCCc3ccccc3)sc2c1 | 4% | 40% | 12% | 93% | 2% | 5% | 19% | 28% | 0% | 1% | 51% | 16% | 95% | 4% | 77% | 62% | 97% | 33% | 38% | 39% | % inhibition ([1]; 100 µg/ml): 100% and 72%; inhibition at 1 µg/mL [4]: 5%
FC(F)(F)c1csc(NC(=S)NCCc2ccccc2)n1 | 21% | 100% | 38% | 19% | 11% | 5% | 43% | 75% | 68% | 98% | 97% | 96% | 97% | 56% | 95% | 98% | 96% | 63% | 73% | 73% | inhibition at 10 µg/mL [1, 8]: 24%; % inhibition ([1]; 0.1 µg/ml): 62% and 84%; % inhibition ([1]; 1 µg/ml): 100% and 75% and 84%; % inhibition ([1]; 10 µg/ml): 16% and 31%; inhibition at 0.1 µg/mL ([3]; 0.1 µg/ml): 9%; inhibition at 0.1 µg/mL ([4]; 0.1 µg/ml): 0%; inhibition at 1 µg/mL [4]: 46%; % inhibition ([7]; 0.1 µg/ml): 68%; % inhibition ([7]; 1 µg/ml): 75%; % inhibition ([7]; 10 µg/ml): 75%
